Read-outs that look alike come from different tables or passages of the source.
Key:
[1] = tested on: isolated guinea pig tracheas; assay: Antagonism of contractions elicited by carbocyclic thromboxane A2 (CTA2), trachea; conditions: for contractile response (mg tension): trachea, Compound I 1×10^-5 M, 30 min
Protocol: (§1) Isolated guinea pig tracheas or paired lung parenchymal strips were attached via silk suture to force displacement transducers for recording changes in isometric tension. The tissues were equilibrated for one hour in modified Krebs' buffer at 37.5° C. and aerated with 95% O2 /5% CO2. Then, the tissues were equilibrated for 30 additional minutes with N,N'-bis[7-(3-chlorobenzeneaminosulfonyl)-1,2,3,4-tetrahydroisoquinolyl]disulfonylimide (Compound I) (1×10^-5 M) or buffer. Contraction of the tissues was then elicited by increasing the bath concentration of CTA2 in a cumulative fashion. The contractile responses were recorded as changes in mg tension.

[2] = tested on: isolated guinea pig lung parenchymal strips; assay: Antagonism of contractions elicited by carbocyclic thromboxane A2 (CTA2), lung parenchymal strips; conditions: for contractile response (mg tension): lung parenchyma, Compound I 1×10^-5 M, 30 min
Protocol: as §1

[3] = tested on: canine bronchoconstriction induced by U-44069; assay: Protection in a drug-induced (U-44069) canine bronchospasm; assay type: in vivo, mongrel dogs; conditions: for Decrease in ability of lungs to expand easily / Increase in resistance to movement of air into the lungs: anesthetized dogs
Protocol: Bronchopulmonary responses to these agents were measured by computer analyses in 5 spontaneously breathing, anesthetized mongrel dogs. In a dose range of 0.3-3.0 μg/kg i.v., the endoperoxide analog produced dose-related alterations in pulmonary airway resistance, dynamic lung compliance, expiratory airflow rate, tidal volume and respiratory frequency. […] Inhibition by Compound I occurred in all pulmonary parameters calculated.

[4] = tested on: human platelet aggregation; assay: Inhibition of human platelet aggregation in platelet-rich plasma; assay type: cell-based
Protocol: Platelet-rich plasma (PRP) and platelet-poor plasma (PPP) are prepared from citrated blood of drug-free human volunteers and are stored at room temperature for at least 30 minutes before use. Each PRP sample is preincubated two minutes at 37° C. prior to addition of N,N-bis[7-(3-chlorobenzeneaminosulfonyl)-1,2,3,4-tetrahydroisoquinolyl]disulfonylimide (Compound I) or agonists; Compound I is preincubated for 1 minute prior to addition of agonist. A dose response is determined for each agonist, and a concentration which gives a biphasic response is selected. Compounds are tested for inhibition of the response (control response) generated by this agonist concentration. A time is selected, and the height at which the various curves intersect this time line is measured and expressed in mm (a measure of light transmittance). The difference between the response of the control and that with inhibitor present is used to calculate percent inhibition. This value is plotted against inhibitor concentrations to determine the IC50 (the inhibitory concentration of Compound I which inhibits aggregation by 50%).

[5] = pretreat with Compound I 5 mg/kg i.v., then U-44069 0.3 μg/kg i.v.
[6] = pretreat with Compound I 5 mg/kg i.v., then U-44069 1.0 μg/kg i.v.
[7] = pretreat with Compound I 5 mg/kg i.v., then U-44069 3.0 μg/kg i.v.

In the case of `O=S(=O)(Nc1cccc(Cl)c1)c1ccc2c(c1)CN(S(=O)(=O)NS(=O)(=O)N1CCc3ccc(S(=O)(=O)Nc4cccc(Cl)c4)cc3C1)CC2` [Compound I, N,N'-bis[7-(3-chlorobenzeneaminosulfonyl)-1,2,3,4-tetrahydroisoquinolyl]disulfonylimide], the “response to challenge with reference contractile agonist” value ([1]; trachea receiving Compound I, 1 × 10^-5 M carbachol) is reported as “responded normally”, the “contractile response (mg tension)” value ([1]; CTA2 10^-6 M, control 360.0 ± 89.8) is reported as 42.9 ± 20.2 mg tension and the “contractile response (mg tension)” value ([1]; CTA2 10^-7 M, control 125.0 ± 33.5) is reported as 0 mg tension. The “contractile response (mg tension)” value ([1]; CTA2 10^-8 M, control 0) was 0 mg tension, the “response to challenge with reference contractile agonist” value ([2]; lung parenchyma receiving Compound I, 1 × 10^-3 M histamine) was “responded normally” and the “contractile response (mg tension)” value ([2]; CTA2 10^-6 M, control 181.5 ± 23.3) was 0 mg tension. The “contractile response (mg tension)” value ([2]; CTA2 10^-7 M, control 103.5 ± 23.7) was 0 mg tension, the “contractile response (mg tension)” value ([2]; CTA2 10^-8 M, control 45.5 ± 11.4) was 0 mg tension and the “Decrease in ability of lungs to expand easily” value (from here on “Decrease in ability of lungs”) [3, 5] was 5%. For the same compound, the “Increase in resistance to movement of air into the lungs” value (“Increase in resistance to movement” for short) [3, 5] was 14%, the “Decrease in ability of lungs” value [3, 6] was 13% and the “Increase in resistance to movement” value [3, 6] was 30%. For the same compound, the “Decrease in ability of lungs” value [3, 7] was 28%, the “Increase in resistance to movement” value [3, 7] was 56% and the “effect on U-44069-induced bronchospasm (all pulmonary parameters)” value ([3]; pretreatment with Compound I 5.0 mg/kg i.v., shift to the right of the control U-44069 curve) was “inhibition of the bronchospasm”. For the same compound, the IC50 ([4]; agonist A23187, human PRP, read-out: IC50, inhibition of secondary phase) was 12 µM, the IC50 ([4]; agonist Platelet Activating Factor (PAF), human PRP, read-out: IC50, inhibition of secondary phase) was 4.5 µM and the IC50 ([4]; agonist U-44069, human PRP, read-out: IC50, inhibition of primary phase) was 2.5 µM. The IC50 ([4]; agonist U-44069, human PRP, read-out: IC50, inhibition of secondary phase) was 1.7 µM, the IC50 ([4]; agonist arachidonic acid, human PRP, read-out: IC50, inhibition of primary phase) was 19 µM and the IC50 ([4]; agonist collagen, human PRP, read-out: IC50, inhibition of primary phase) was 10 µM.

For `CCCCC[C@H](O)/C=C/[C@H]1[C@@H]2CO[C@@H](C2)[C@@H]1C/C=C\CCCC(=O)O` [Compound U-44069, reference compound], the “Decrease in ability of lungs” value ([3]; U-44069 alone 0.3 μg/kg i.v.) was 28%, the “Increase in resistance to movement” value ([3]; U-44069 alone 0.3 μg/kg i.v.) was 67% and the “Decrease in ability of lungs” value ([3]; U-44069 alone 1.0 μg/kg i.v.) was 56%. For the same compound, the “Increase in resistance to movement” value ([3]; U-44069 alone 1.0 μg/kg i.v.) was 333%, the “Decrease in ability of lungs” value ([3]; U-44069 alone 3.0 μg/kg i.v.) was 70% and the “Increase in resistance to movement” value ([3]; U-44069 alone 3.0 μg/kg i.v.) was 549%.
